Measurements from PubChem BioAssay (NCI).
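Cultured in 96-well plates, cells were exposed to test compound for 48 hours across five concentrations. TGI marks complete inhibition of growth.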

Legend:
Assay in all cases: growth of human tumour cells (NCI), 48 h
CAKI-1 renal = tested on: CAKI-1 renal
HCC-2998 colon = tested on: HCC-2998 colon
HL-60(TB) leukemia = tested on: HL-60(TB) leukemia
HOP-18 NSCLC = tested on: HOP-18 NSCLC
HOP-62 NSCLC = tested on: HOP-62 NSCLC
HOP-92 NSCLC = tested on: HOP-92 NSCLC
HT29 colon = tested on: HT29 colon
M19-MEL melanoma = tested on: M19-MEL melanoma
MALME-3M melanoma = tested on: MALME-3M melanoma
MCF7 breast = tested on: MCF7 breast
NCI-H23 lung = tested on: NCI-H23 lung
NCI/ADR-RES ovarian = tested on: NCI/ADR-RES ovarian
OVCAR-3 ovarian = tested on: OVCAR-3 ovarian
SF-295 CNS = tested on: SF-295 CNS
SF-539 CNS = tested on: SF-539 CNS
SK-MEL-5 melanoma = tested on: SK-MEL-5 melanoma
SK-OV-3 ovarian = tested on: SK-OV-3 ovarian
SN12C renal = tested on: SN12C renal
SW-620 colon = tested on: SW-620 colon
UACC-62 melanoma = tested on: UACC-62 melanoma

## CN(C)C(=O)OCOC(=O)N(C)C
CAKI-1 renal
  TGI: > 100 µM
HCC-2998 colon
  TGI: > 100 µM
HL-60(TB) leukemia
  TGI: > 31.6 µM
HOP-18 NSCLC
  TGI: > 100 µM
HOP-62 NSCLC
  TGI: > 100 µM
HOP-92 NSCLC
  TGI: > 100 µM
HT29 colon
  TGI: > 100 µM
M19-MEL melanoma
  TGI: > 100 µM
MALME-3M melanoma
  TGI: > 100 µM
MCF7 breast
  TGI: > 100 µM
NCI-H23 lung
  TGI: > 100 µM
NCI/ADR-RES ovarian
  TGI: > 100 µM
OVCAR-3 ovarian
  TGI: > 100 µM
SF-295 CNS
  TGI: > 100 µM
SF-539 CNS
  TGI: > 100 µM
SK-MEL-5 melanoma
  TGI: > 100 µM
SK-OV-3 ovarian
  TGI: > 100 µM
SN12C renal
  TGI: > 100 µM
SW-620 colon
  TGI: > 100 µM
UACC-62 melanoma
  TGI: > 100 µM

## CCOC(=O)c1csc(NC(=O)C(C)N2CCCCC2)n1 (configuration not stated)
CAKI-1 renal
  TGI: > 100 µM
HCC-2998 colon
  TGI: > 100 µM
HL-60(TB) leukemia
  TGI: > 100 µM
HOP-62 NSCLC
  TGI: > 100 µM
HOP-92 NSCLC
  TGI: > 100 µM
HT29 colon
  TGI: > 100 µM
MALME-3M melanoma
  TGI: > 100 µM
MCF7 breast
  TGI: > 100 µM
NCI-H23 lung
  TGI: > 100 µM
NCI/ADR-RES ovarian
  TGI: > 100 µM
OVCAR-3 ovarian
  TGI: > 100 µM
SF-295 CNS
  TGI: > 100 µM
SF-539 CNS
  TGI: > 100 µM
SK-MEL-5 melanoma
  TGI: > 100 µM
SK-OV-3 ovarian
  TGI: > 100 µM
SW-620 colon
  TGI: > 100 µM
UACC-62 melanoma
  TGI: > 100 µM

## OCC1OC(n2cnc3c2NC=NC[C@H]3O)C(O)C1O (some centres not stated)
CAKI-1 renal
  TGI: > 450 µM
HCC-2998 colon
  TGI: > 450 µM
HL-60(TB) leukemia
  TGI: 284 µM
HOP-18 NSCLC
  TGI: > 450 µM
HOP-62 NSCLC
  TGI: > 419 µM
HOP-92 NSCLC
  TGI: > 414 µM
HT29 colon
  TGI: > 450 µM
M19-MEL melanoma
  TGI: > 450 µM
MALME-3M melanoma
  TGI: > 450 µM
MCF7 breast
  TGI: > 450 µM
NCI-H23 lung
  TGI: > 450 µM
NCI/ADR-RES ovarian
  TGI: > 450 µM
OVCAR-3 ovarian
  TGI: > 450 µM
SF-295 CNS
  TGI: > 450 µM
SF-539 CNS
  TGI: > 450 µM
SK-MEL-5 melanoma
  TGI: > 71.3 µM
SK-OV-3 ovarian
  TGI: > 450 µM
SN12C renal
  TGI: > 450 µM
SW-620 colon
  TGI: > 450 µM
UACC-62 melanoma
  TGI: > 450 µM

## COC(=O)C1OC(Oc2cc(O)c3c(=O)cc(-c4ccc(O)cc4)oc3c2)C(O)C(O)C1O (configuration not stated)
CAKI-1 renal
  TGI: > 100 µM
HCC-2998 colon
  TGI: > 100 µM
HL-60(TB) leukemia
  TGI: > 100 µM
HOP-18 NSCLC
  TGI: > 100 µM
HOP-62 NSCLC
  TGI: > 100 µM
HOP-92 NSCLC
  TGI: > 100 µM
HT29 colon
  TGI: > 100 µM
M19-MEL melanoma
  TGI: > 100 µM
MALME-3M melanoma
  TGI: > 100 µM
MCF7 breast
  TGI: > 100 µM
NCI-H23 lung
  TGI: > 100 µM
NCI/ADR-RES ovarian
  TGI: > 100 µM
OVCAR-3 ovarian
  TGI: > 100 µM
SF-295 CNS
  TGI: > 100 µM
SF-539 CNS
  TGI: > 100 µM
SK-MEL-5 melanoma
  TGI: > 100 µM
SK-OV-3 ovarian
  TGI: > 100 µM
SN12C renal
  TGI: > 100 µM
SW-620 colon
  TGI: > 100 µM
UACC-62 melanoma
  TGI: > 100 µM
